Results taken from patent publication US20130203805A1, “Methods for treating anemia using inhibitors of hypoxia-inducible factor (HIF) hydroxylase” (FIBROGEN, INC., priority 2001, published 2013).

How the values were obtained:
[1] = tested on: erythropoietin gene expression; test: Erythropoietin gene expression in liver and kidney by quantitative PCR (Example 2, Experiment I); assay type: in vivo, Swiss Webster male mice; conditions: mice, 200 mg/kg/day oral gavage twice daily 2.5 days (5 doses), 4 h after final dose, FIG. 2A
Experimental: Twelve Swiss Webster male mice (30-32 g) were obtained from Simonsen, Inc. (Gilroy Calif.), and treated by oral gavage two times per day for 2.5 days (5 doses) with a 4 ml/kg volume of either 0.5% carboxymethyl cellulose (CMC; Sigma-Aldrich, St. Louis Mo.) (0 mg/kg/day) or 2.5% Compound C (25 mg/ml in 0.5% CMC) (200 mg/kg/day). Four hours after the final dose, animals were anesthetized with isoflurane and two blood samples were collected from the abdominal vein. One blood sample was collected into a MICROTAINER serum separator tube (Becton-Dickinson, Franklin Lakes N.J.), and incubated at room temperature for 30 minutes, centrifuged at 8,000 rpm at 4° C. for 10 minutes. The serum fraction was then processed and analyzed for erythropoietin (EPO) expression using a QUANTIKINE immunoassay (R&D Systems) according to the manufacturer's instructions. […] Hematocrit was measured by drawing EDTA-blood into a 75 mm×1.1-12 mm I.D. capillary tube (Chase Scientific Glass, Inc., Rockwood Tenn.) to approximately ¾ length. […] Hematocrit was read against a reader card. […]
RNA isolation was carried out using the following protocol. […] The RNA was eluted into 80 μL of water and quantitated with RIBOGREEN reagent (Molecular Probes, Eugene Oreg.). […] The absorbance at 260 and 280 nm was measured to determine RNA purity and concentration. […]
The relative level of 18S ribosomal RNA gene expression was measured as a control. […]

erythropoietin (EPO) = test: Serum/plasma erythropoietin level by immunoassay (Example 2, Experiment I); assay type: in vivo, Swiss Webster male mice; conditions: mice; 200 mg/kg/day oral gavage 2.5 days; 4 h after final dose; relative to untreated controls; FIG. 2B
Experimental: (§1) Twelve Swiss Webster male mice (30-32 g) were obtained from Simonsen, Inc. (Gilroy Calif.), and treated by oral gavage two times per day for 2.5 days (5 doses) with a 4 ml/kg volume of either 0.5% carboxymethyl cellulose (CMC; Sigma-Aldrich, St. Louis Mo.) (0 mg/kg/day) or 2.5% Compound C (25 mg/ml in 0.5% CMC) (200 mg/kg/day). Four hours after the final dose, animals were anesthetized with isoflurane and two blood samples were collected from the abdominal vein. One blood sample was collected into a MICROTAINER serum separator tube (Becton-Dickinson, Franklin Lakes N.J.), and incubated at room temperature for 30 minutes, centrifuged at 8,000 rpm at 4° C. for 10 minutes. The serum fraction was then processed and analyzed for erythropoietin (EPO) expression using a QUANTIKINE immunoassay (R&D Systems) according to the manufacturer's instructions. The second blood sample was collected into a MICROTAINER EDTA-2K tube (Becton-Dickinson) for hematocrit analysis. Hematocrit was measured by drawing EDTA-blood into a 75 mm×1.1-12 mm I.D. capillary tube (Chase Scientific Glass, Inc., Rockwood Tenn.) to approximately ¾ length. One end of the tube was sealed with CRITOSEAL sealant (Sherwood Medical Company) and the tube was centrifuged in a J-503M MICROHEMATOCRIT centrifuge (Jorgensen Laboratories, Inc., Loveland Colo.) at 12,000 rpm for 5 minutes. Hematocrit was read against a reader card. […]

[2] = Hematocrit (Example 2, Experiment I); assay type: in vivo, Swiss Webster male mice; conditions: mice; 200 mg/kg/day oral gavage 2.5 days; 4 h after final dose; relative to untreated controls; FIG. 2C
Experimental: as §1

erythropoietin = test: Erythropoietin production following bilateral nephrectomy: serum erythropoietin (Example 8); assay type: in vivo; conditions: rats, 100 or 150 mg/kg oral gavage at 2 and 20 hours post-surgery, blood at 24 hours, FIG. 7
Experimental: The ability of a compound of the invention to induce endogenous erythropoietin production in the absence of functioning kidney was assayed using a procedure described by Jacobson et al, (1957, Nature 179:633-634.) Briefly, rats were anesthetized under isoflurane and a midline abdominal incision was made under sterile conditions. The kidney capsules were peeled off, the pedicles were ligated, and both kidneys were removed. The abdomen was then closed and the animal was allowed to recover.
Animals were treated by oral gavage at 2 and 20 hours post-surgery with either 0.5% carboxymethyl cellulose (CMC; Sigma-Aldrich, St. Louis Mo.) or with compound C at 100 or 150 mg/kg. Blood samples (0.6 ml) were collected at 24 hours as follows. Animals were anesthetized with isoflurane and blood was collected from the tail vein into a MICROTAINER EDTA-2K tube (Becton-Dickinson). Blood samples were processed for erythropoietin levels and hematocrit as described in Example 2. Complete Blood Count (CBC) analysis, including blood hemoglobin level, reticulocyte number, and hematocrit, was performed by IDEXX veterinary service (W. Sacramento, Calif.).

In the case of `O=C(O)CNC(=O)c1nc(Cl)c2ccccc2c1O` [Compound C, [(1-chloro-4-hydroxy-isoquinoline-3-carbonyl)-amino]-acetic acid], the “increase over background in EPO transcript level, kidney” value ([1]; relative to untreated kidney) is reported as “approximately 580 fold”, the “increase over background in EPO transcript level, liver” value ([1]; relative to untreated liver) is reported as “approximately 32 fold” and the erythropoietin plasma level (erythropoietin (EPO)) is reported as “significant increase”. The hematocrit [2] was “significantly increased”, the “serum erythropoietin levels, sham-operated animals” value (erythropoietin) was “significantly increased” and the “serum erythropoietin levels, bilaterally nephrectomized animals” value (erythropoietin; relative to untreated BN and sham controls) was “noticably increased”.
